According to publication PMC12491715 (Acta Pharmaceutica Sinica. B, 2025):

Experiments:
[1] = Shake-flask partition coefficient / logD; assay type: physicochemical; conditions: n-octanol/PBS buffer
Description: Shake-flask partition coefficient measurement was done according to OECD guideline 107 (27. 7. 1995) and EPA OPPTS 830.7550 guideline (1996). […] […] Each solvent ratio was done in duplicates. The Eppendorf tubes were thoroughly shaken to ensure partition and centrifuged (5000 × g, 10 min) to separate the phases. Water phase (carefully sampled using needle and syringe) was transferred to HPLC vials directly, whereas n-octanol phases were diluted with MeCN (10–50×) prior to analysis. Additional dilutions were carried out, if needed.

[2] = tested on: ICR mice icv-injected with Aβ1–42; assay: Novel object recognition, mice model with icv-injection of Aβ1–42; assay type: in vivo; conditions: ip, once a day, vs rivastigmine 4
Description: Mice model with icv-injection of Aβ1–42 The experiments were performed using ICR male mice (8–10 weeks old, weight 18–20 g), which were purchased from Shanghai Bikai Animal Breeding Factory (Shanghai, China). Animals were housed in cages (6 mice per cage) at a constant temperature of 25±2 °C, humidity of 55%±10% and a light/dark (12:12) cycle. The mice had unlimited access to food and water prior to the experiment. Specified conditions for the maintenance of mice were ensured throughout the experiments, including tree bedding (Yizheng Anlimao Biotechnology Co., Ltd., China) and lab feed (Zimao, China). For behavioural tests, mice were selected randomly, each group consisted of 6 mice. The experiments were performed between 9 am and 3 pm.
According to the literature procedure, recombinant human hexafluoroisopropanol-pretreated Aβ1–42 from Merck Millipore (Darmstadt, Germany) was dissolved in 1% DMSO, diluted with saline to the final concentration of 2 mg/mL, and incubated for 72 h to form oligomers. […]
Novel object recognition experiment was performed in a maze with dimensions 50 cm×50 cm×40 cm, with black cuboid (4 cm×4 cm×5 cm) as the old object, and white cylinder (2r = 5 cm, h = 5 cm) as the new object. […] Time spent exploring new and old objects was recorded using ANY-maze software and processed using GraphPad Prism 5.

Compound: CCN(CC)C(=O)n1cnc(C2(CC)Cc3ccccc3C2)c1 [Compound 8, N,N-Diethyl-4-(2-ethylindan-2-yl)-1H-imidazole-1-carboxamide]
- logD ([1]; pH 0.91): 0.3 ± 0.06
- logD ([1]; pH 1.99): 1.18 ± 0.1
- logD ([1]; pH 3.07): 2.17 ± 0.25
- logD ([1]; pH 4.44): 3.05 ± 0.1
- logD ([1]; pH 6.02): 3.15 ± 0.14
- logD ([1]; pH 7.4): 3.33 ± 0.11
- logD ([1]; pH 9.55): 3.52 ± 0.39
- recognition memory in novel object recognition task [2]: restored recognition memory comparable or better than 4
